Our source for the Activity, inhibition and MIC values is ChEMBL document CHEMBL5608215, “Development of amphipathic derivatives of thymol and carvacrol as potent broad-spectrum antibacterial agents” (Eur J Med Chem, 2024).

A short description of data set [1]: Toxicity in KM mouse assessed as histopathological abnormality in heart upto 40 mg/kg, ip measured for 24 hrs by H and E staining based analysis. In kind it is organism-based. As to conditions: in vivo.
For data set [2], the system named is Staphylococcus aureus. As to the kind of experiment: Antibacterial activity against Staphylococcus aureus ATCC29213 assessed as cell membrane damage at 8 times MIC by NucGreen/EthD-III staining based analysis. In kind it is functional, organism-based.
Data set [3] in a line: Toxicity in KM mouse assessed as histopathological abnormality in spleen upto 40 mg/kg, ip measured for 24 hrs by H and E staining based analysis. Format: organism-based. The following applies: in vivo.
In data set [4] the test system is Staphylococcus aureus. In words: Antibacterial activity against Staphylococcus aureus ATCC29213 assessed as leakage of cell contents at 8 times MIC by SEM analysis. Format: functional, organism-based.
Another data set concerns Escherichia coli. In words: Bactericidal activity against Escherichia coli ATCC25922 assessed as inhibition of bacterial regrowth at 8 times MIC incubated for 24 hrs by time-kill assay. In kind it is functional, organism-based.
In data set [5] the test system is Staphylococcus aureus. In words: Antibacterial activity against methicillin-resistant Staphylococcus aureus 21-5 by CLSI based serial dilution method. In kind it is functional.
A short description of data set [6]: Toxicity in KM mouse assessed as damage in heart upto 40 mg/kg, ip measured for 24 hrs by H and E staining based analysis. As to conditions: in vivo. In kind it is organism-based.
Data set [7] deals with Staphylococcus aureus. In words: Bactericidal activity against Staphylococcus aureus ATCC29213 incubated upto 24 hrs by time-kill assay. Format: functional, organism-based.
The test system of data set [8] is Staphylococcus aureus. As to the kind of experiment: Antibacterial activity against Staphylococcus aureus ATCC29213 infected in mouse model assessed as reduction in inflammatory factors in skin at 5 to 10 mg/kg, sc measured after 24 hrs by H and E staining based analysis. In kind it is functional, organism-based. As to conditions: dose 5-10 mg/kg.
The test system of data set [9] is Staphylococcus aureus. As to the kind of experiment: Antibacterial activity against Staphylococcus aureus ATCC29213 infected in mouse model assessed as bacterial load in abscesses at 10 mg/kg, sc measured after 24 hrs. In kind it is functional.
Data set [10] has as its system Staphylococcus aureus. As to the kind of experiment: Antibacterial activity against Staphylococcus aureus ATCC25923 upto 32 ug/ml incubated for 16 to 18 hrs in presence of phosphatidylglycerol. Format: functional, organism-based. As to conditions: dose <= 32.0 µg/ml, time 16-18 hrs.
Another data set deals with Pseudomonas aeruginosa. As to the kind of experiment: Anti-biofilm activity against Pseudomonas aeruginosa ATCC27853 assessed as biofilm formation rate at 8 times MIC incubated for 48 hrs by crystal violet staining based analysis relative to control. Format: functional.
For data set [11], the system named is Staphylococcus aureus. In words: Antibacterial activity against Staphylococcus aureus ATCC29213 in plasma pretreated plasma with compound for 6 hrs followed by bacterial infection into plasma. In kind it is functional, organism-based.
Data set [12] in a line: Toxicity in KM mouse assessed as normal condition upto 40 mg/kg, ip measured for 24 hrs. Format: organism-based. As to conditions: in vivo.
Data set [13] relates to Staphylococcus aureus. In words: Antibacterial activity against Staphylococcus aureus ATCC29213 infected in mouse model assessed as bacterial load in abscesses at 5 mg/kg, sc measured after 24 hrs. Format: functional.

Activity calls are given as the source filed them. The rule behind the calls is not given here.

For `CCCCCCCNC(=O)C[N+](C)(C)CCCCOc1cc(C)ccc1C(C)C.[Br-]`, the Activity result in data set [1] was “Non-Toxic”; in data set [3] it was “Non-Toxic”; in data set [6] it was “Non-Toxic”; in the data set on Staphylococcus aureus [7], “Dose-Dependent Effect”; in the data set with Staphylococcus aureus [9], 2.46 log10CFU/g; in the data set with Pseudomonas aeruginosa, 22.3%. The Activity entry is listed as “Non-Toxic” in data set [12] and 2.14 log10CFU/g with Staphylococcus aureus [13]. In addition, the result with Staphylococcus aureus [2], in the data set on Staphylococcus aureus [4], with Staphylococcus aureus [8] and with Staphylococcus aureus [11] was Active. Besides, the inhibition entry with Escherichia coli is “Active”. Besides, 4 µg/mL was the least that counted as inhibitory in the data set on Staphylococcus aureus [5] (MIC). Further, in the data set with Staphylococcus aureus [10], the result was inactive.

By MIC is commonly meant the lowest concentration that inhibits growth of the organism. Higher therefore signals a need for much substance.
